In US20140315834A1 (Medicon Pharmaceuticals, Inc., priority 2012, published 2014):
Read-outs that look alike come from different tables or passages of the source. Values belong to the molecule of their own block, whether it stands above or below them.

Columns and labels:
[1] = test system: MDA-MB-231 human BC cells; assay: Orthotopic MDA-MB-231 breast cancer xenografts, prevention; assay type: in vivo, mice
[2] = biological target: CYP 2C19 (Homo sapiens, UniProt P33261); settings: 37° C., NADPH-regenerating solution
Chain of CYP 2C19 (P33261 whole entry): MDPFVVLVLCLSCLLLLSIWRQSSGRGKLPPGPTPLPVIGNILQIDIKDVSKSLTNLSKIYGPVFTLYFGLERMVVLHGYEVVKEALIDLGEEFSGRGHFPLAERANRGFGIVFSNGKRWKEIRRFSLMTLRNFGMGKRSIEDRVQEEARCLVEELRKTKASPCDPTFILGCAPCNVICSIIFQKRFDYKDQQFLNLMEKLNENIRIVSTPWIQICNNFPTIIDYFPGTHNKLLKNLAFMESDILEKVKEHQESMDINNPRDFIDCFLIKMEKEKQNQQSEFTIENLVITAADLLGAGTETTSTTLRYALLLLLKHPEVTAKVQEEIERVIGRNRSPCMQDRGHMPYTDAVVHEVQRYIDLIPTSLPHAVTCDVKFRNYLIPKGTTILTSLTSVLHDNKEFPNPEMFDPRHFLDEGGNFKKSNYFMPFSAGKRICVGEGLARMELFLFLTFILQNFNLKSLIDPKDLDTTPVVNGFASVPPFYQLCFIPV

[3] = biological target: CYP 2D6 (Homo sapiens, UniProt P10635); settings: 37° C., NADPH-regenerating solution
Chain of CYP 2D6 (P10635 whole entry): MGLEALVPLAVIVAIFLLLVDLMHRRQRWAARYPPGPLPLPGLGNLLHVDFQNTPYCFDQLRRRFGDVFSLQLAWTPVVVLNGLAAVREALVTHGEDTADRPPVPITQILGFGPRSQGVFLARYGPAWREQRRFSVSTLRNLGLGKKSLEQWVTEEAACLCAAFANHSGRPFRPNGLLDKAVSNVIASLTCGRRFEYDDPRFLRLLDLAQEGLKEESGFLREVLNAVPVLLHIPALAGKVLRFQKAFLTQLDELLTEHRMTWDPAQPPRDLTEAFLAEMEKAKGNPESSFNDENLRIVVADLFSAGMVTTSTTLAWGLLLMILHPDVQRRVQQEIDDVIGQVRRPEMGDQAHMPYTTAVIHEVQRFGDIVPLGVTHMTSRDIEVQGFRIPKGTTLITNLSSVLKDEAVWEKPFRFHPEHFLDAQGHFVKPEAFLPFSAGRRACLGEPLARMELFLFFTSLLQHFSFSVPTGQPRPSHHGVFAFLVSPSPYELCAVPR

[4] = biological target: CYP 2C9 (Homo sapiens, UniProt P11712); settings: 37° C., NADPH-regenerating solution
Chain of CYP 2C9 (P11712 whole entry): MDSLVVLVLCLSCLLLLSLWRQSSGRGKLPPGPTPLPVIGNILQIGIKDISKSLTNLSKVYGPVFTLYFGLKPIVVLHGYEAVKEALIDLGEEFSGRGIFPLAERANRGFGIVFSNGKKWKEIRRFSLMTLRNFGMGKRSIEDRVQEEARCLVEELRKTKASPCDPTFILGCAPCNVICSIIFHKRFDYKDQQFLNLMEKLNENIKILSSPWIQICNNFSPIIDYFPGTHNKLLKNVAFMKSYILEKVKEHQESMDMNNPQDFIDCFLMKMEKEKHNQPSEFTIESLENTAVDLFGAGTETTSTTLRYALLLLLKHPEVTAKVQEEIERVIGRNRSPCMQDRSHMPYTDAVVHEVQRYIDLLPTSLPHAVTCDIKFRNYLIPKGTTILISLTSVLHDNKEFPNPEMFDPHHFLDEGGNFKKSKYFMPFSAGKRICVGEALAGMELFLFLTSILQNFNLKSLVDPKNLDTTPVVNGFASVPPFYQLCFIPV

[5] = biological target: CYP 3A4 (Homo sapiens, UniProt P08684); settings: 37° C., NADPH-regenerating solution
Chain of CYP 3A4 (P08684 whole entry): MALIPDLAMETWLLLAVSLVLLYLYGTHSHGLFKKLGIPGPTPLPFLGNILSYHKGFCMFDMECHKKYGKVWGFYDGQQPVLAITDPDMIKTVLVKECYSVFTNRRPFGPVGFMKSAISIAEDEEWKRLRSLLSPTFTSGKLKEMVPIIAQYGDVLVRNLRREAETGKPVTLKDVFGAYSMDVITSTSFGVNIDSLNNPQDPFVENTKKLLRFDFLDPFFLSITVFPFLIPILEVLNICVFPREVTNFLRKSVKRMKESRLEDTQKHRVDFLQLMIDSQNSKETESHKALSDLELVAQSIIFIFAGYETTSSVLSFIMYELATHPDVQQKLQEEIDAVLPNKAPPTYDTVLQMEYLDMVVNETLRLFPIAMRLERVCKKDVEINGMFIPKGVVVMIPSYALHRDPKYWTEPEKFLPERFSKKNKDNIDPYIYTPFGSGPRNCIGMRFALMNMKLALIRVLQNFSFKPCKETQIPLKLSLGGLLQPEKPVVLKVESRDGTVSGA

[6] = biological target: CYP 1A2 (Homo sapiens, UniProt P05177); settings: 37° C., NADPH-regenerating solution
Chain of CYP 1A2 (P05177 whole entry): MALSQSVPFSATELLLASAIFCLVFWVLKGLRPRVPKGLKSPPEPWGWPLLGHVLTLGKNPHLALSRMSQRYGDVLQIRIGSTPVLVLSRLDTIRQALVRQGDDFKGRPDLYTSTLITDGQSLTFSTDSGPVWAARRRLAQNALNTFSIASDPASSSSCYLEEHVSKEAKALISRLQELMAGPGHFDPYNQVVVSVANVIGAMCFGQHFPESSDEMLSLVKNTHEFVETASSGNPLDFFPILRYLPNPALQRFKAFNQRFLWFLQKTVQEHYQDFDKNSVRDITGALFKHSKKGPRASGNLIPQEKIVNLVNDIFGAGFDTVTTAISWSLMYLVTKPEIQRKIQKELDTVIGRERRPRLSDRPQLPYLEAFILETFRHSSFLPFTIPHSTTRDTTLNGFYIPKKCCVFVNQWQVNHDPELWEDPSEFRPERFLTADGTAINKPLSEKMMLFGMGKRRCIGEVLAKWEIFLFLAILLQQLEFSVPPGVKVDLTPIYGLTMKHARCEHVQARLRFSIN

[7] = test system: U87 glioblastoma cell line; assay: 24-hour growth inhibition of glioblastoma cells; assay type: cell-based; settings: read-out: 24-h 1c50
[8] = Pharmacokinetics of PI-PEG and PI, i.p.; assay type: in vivo, mice; settings: equimolar doses
[9] = test system: A431 skin cancer cells; assay: Cellular uptake, intracellular level by HPLC; settings: 1 hour incubation
[10] = test system: AsPC-1, CFPAC-1, Capan-2, Panc-1 and MIA PaCa-2; assay: Growth of human pancreatic cancer cell lines, 24 hours; assay type: cell-based; settings: escalating concentrations, all cell lines
Procedure: Cell growth was determined in the human pancreatic cancer cell lines AsPC-1, CFPAC-1, Capan-2, Panc-1 and MIA PaCa-2 after treatment with escalating concentrations of P-FTS 67 for 24 hours.

[11] = test system: MIA PaCa-2 cells; assay: MIA PaCa-2 pancreatic cancer xenografts; assay type: in vivo, mice; settings: for reduction of tumor volume growth: day 25
Procedure: The in vivo chemotherapeutic potential of P-FTS 67 was assessed using a pancreatic cancer xenograft model. MIA PaCa-2 cells were injected subcutaneously into the flank areas of nude mice. When palpable tumors were observed, the mice received P-FTS 67, 50 or 100 mg/kg/d by oral gavage in corn oil or just corn oil (control) for 25 days. On day 25 of treatment, P-FTS 67, 50 mg/kg/d, and P-FTS 67, 100 mg/kg/d reduced the tumor volume growth by 62% and 65%, respectively (p <0.05; FIG. 27).

[12] = Sub-chronic toxicity of P-FTS, 3 weeks oral gavage; assay type: in vivo, mice
Procedure: The toxicity of P-FTS in mice was further examined. Groups of 6 week-old female BALB/c mice (5 mice/group) were given by oral gavage once a day for 3 weeks P-FTS: 0, 75, 150, 250 and 350 mg/kg. […] The (sub-chronic) maximum tolerated dose of P-FTS 67 (3-week period of observation) was determined to be at least 350 mg/kg/d.

[13] = test system: Ras (Ras-GTP) in Panc-1 cells; assay: Ras-GTP pull down assay in cells; assay type: cell-based
Source text: In the following experiments it was examined whether the pancreatic cancer growth inhibitory effect of P-FTS 67 is associated with down regulation of Ras signaling. For this purpose, the Ras-GTP pull down assay was used.

[14] = test system: active Ras in MIA PaCa-2 xenografts; assay: Ras-GTP pull down assay in xenograft lysates; assay type: in vivo, mice
Procedure: The inhibition of Ras by P-FTS 67 was further confirmed in vivo. The Ras-GTP pull down assay was used to test the capacity of P-FTS 67 to inhibit active Ras in fresh protein lysates from MIA PaCa-2 xenografts. Compared to controls, P-FTS 67, 50 and 100 mg/kg reduced RAS activation in xenografts by 62% and 70%, respectively (p<0.01, for both; FIG. 30A).

[15] = test system: p-c-RAF; assay: Immunostaining of xenograft tissue sections, p-c-RAF; assay type: in vivo, mice; settings: MIA PaCa-2 xenograft tissue sections
[16] = test system: p-ERK1/2; assay: Immunostaining of xenograft tissue sections, p-ERK1/2; assay type: in vivo, mice; settings: MIA PaCa-2 xenograft tissue sections
[17] = Cardiotoxicity, histology of heart tissue sections; assay type: in vivo, mice; settings: treated for about 1.5 months
Source text: Heart tissue sections from mice treated with PTI for about 1.5 months were examined histologically.

[18] = test system: SW480 colon cancer cells; assay: SW480 xenografts, prevention of colon cancer; assay type: in vivo, mice; settings: 10 mg/kg/day oral gavage, 43 days, end of study
Procedure: Six-week-old female athymic nude mice, i.e. lacking a thymus gland and having no T-cells (Taconic Farms, Germantown, N.Y.; in =6/group) were treated by oral gavage of PTI 10 mg/kg/day, or vehicle (corn oil) for a total of 43 days. Five days later, 1.2×10^6 SW480 colon cancer cells suspended in 100 μl of phosphate buffered saline (PBS) were inoculated subcutaneously to each flank of the mice. Tumor size was monitored by measuring the length (L) and width (W) with a digital caliper and the volume was calculated according to the formula, L×W×(L+W/2)×0.56.

[19] = Pharmacokinetics of PTI, plasma levels after i.p. dose
[20] = Gastrointestinal toxicity, gastric ulcers by H&E staining
[21] = test system: Salmonella Typhimurium (TA98 and TA100); assay: Genotoxicity, reverse mutation with and without rat liver S9; settings: TA98 and TA100, presence and absence of rat liver S9
[22] = in vivo; settings: wt (wild type) and nude, mouse, po
[23] = Maximum tolerated dose of PA-III; design: species or system mice; settings: mouse, in vivo
Procedure: The ability of phospho-aspirin III (PA-III) 506 to prevent breast cancer (BC) was evaluated using MDA-MB-231 human BC cells xenografted into one of the mammary glands of nude mice (orthotopic xenografts). PA was administered orally, 120 mg/kg/d 1 week prior to inoculating the cells (the standard prevention protocol); acetylsalicylic acid (ASA) was given at an equimolar dose of 40 mg/kg/d. This was the highest dose of ASA that these mice could tolerate on a long-term basis. The dose of PA-III 506 represents <10% of its maximum tolerated dose (MTD>1,600 mg/kg), but was chosen so that a comparison between PA-III 506 and ASA was possible.

[24] = Levels of PA-III and metabolites in blood and xenografts by HPLC; assay type: in vivo; settings: mice treated with PA-III 506
[25] = design: AUC in lung: unit not given beside the values; settings: mouse, in vivo, inhaled or intranasal
[26] = mouse, in vivo, po, 100 mg/kg
[27] = test system: A549 human lung cancer xenografts; assay: A549 sc xenografts, i.v. PS in nanocarrier vs sulindac; assay type: in vivo, mice; settings: equimolar dose of sulindac 40 mg/kg
[28] = Pharmacokinetics of phosphosulindac amide, single oral dose; settings: after single oral dose 100 mg/kg PSA 95
[29] = rat, in vivo
[30] = 120 mg/kg/d orally, 20 treated mice

Structure (SMILES): CC(=O)Oc1ccccc1C(=O)O [ASA, acetylsalicylic acid]
- effect on BC xenograft growth ([1]; 40 mg/kg/d): no effect
- oxidation (conversion to 5-OH-PSA) by CYP 2C19 [2]: cannot be oxidized
- oxidation (conversion to 5-OH-PSA) by CYP 2D6 [3]: cannot be oxidized
- oxidation by CYP 2C9 [4]: cannot be oxidized
- oxidation by CYP 3A4 [5]: cannot be oxidized
- oxidation by CYP 1A2 [6]: cannot be oxidized

Structure (SMILES): CCOP(=O)(OCC)OCCCCOC(=O)C(C)c1ccc(CC(C)C)cc1 (stereo not drawn) [Compound 2, phospho-ibuprofen]
- IC50 ([7]; 24 h): 98 µM
- stability and circulation in blood [8]: rapidly hydrolyzed
- level inside the cells ([9]; 100 pM): 0.75 nM
- increase over the other two compounds ([9]; limit of detection 2.5 pmol): ≥ 300 fold

Structure (SMILES): CCOP(=O)(OCC)OCCCCOC(=O)c1ccccc1SC/C=C(\C)CC/C=C(\C)CCC=C(C)C [Compound 67]
- pancreatic cancer cell growth, % control [10]: decreases pancreatic cancer cell growth in a concentration-dependent manner
- reduction of tumor volume growth ([11]; 50 mg/kg/d oral gavage): 62%
- reduction of tumor volume growth ([11]; 100 mg/kg/d oral gavage): 65%
- tolerability in the efficacy study ([11]; 50 or 100 mg/kg/d oral gavage, 25 days): well tolerated
- weight loss or other signs of toxicity ([12]; 75, 150, 250 and 350 mg/kg oral gavage once a day for 3 weeks): no weight loss or other signs of toxicity
- (sub-chronic) maximum tolerated dose ([12]; oral gavage once a day, 3-week period of observation): at least 350 mg/kg/d
- inhibition of active Ras (Ras-GTP) [13]: significantly inhibited
- reduction of RAS activation in xenografts ([14]; 50 mg/kg): 62%
- reduction of RAS activation in xenografts ([14]; 100 mg/kg): 70%
- reduction of expression of p-c-RAF [15]: 73%
- reduction of expression of p-ERK1/2 [16]: 71%

Structure (SMILES): CCOP(=O)(OCC)OCCc1ccc(OC(=O)Cc2c(C)n(C(=O)c3ccc(Cl)cc3)c3ccc(OC)cc23)cc1 [Compound 93]
- heart histology vs healthy control mice [17]: no differences
- reduction of tumor growth [18]: 85%
- AUCtotal of PTI relative to indomethacin ([19]; FIG. 19, equimolar i.p. doses): about 3.5 times
- time at which PTI became undetectable post administration ([19]; single i.p. dose 100 mg/kg PTI): 4 h
- time of maximum concentration of PTI ([19]; single i.p. dose 100 mg/kg PTI): 2 h
- gastric damage, H&E stained gastric tissue sections ([20]; FIG. 18A): not
- reduction of ulcers compared to indomethacin ([20]; day 5, PTI 10 mg/kg/day): 60%
- rats that developed ulcers ([20]; day 5, gavage 4 days, indomethacin 4.75 mg/kg/day, PTI 10 mg/kg/day): 40%
- genotoxicity [21]: no genotoxicity

Structure (SMILES): CCOP(=O)(OCC)OCC(CNC(=O)CC1=C(C)/C(=C/c2ccc([S+](C)[O-])cc2)c2ccc(F)cc21)OP(=O)(OCC)OCC (stereo not drawn) [Compound 99, (Z)-tetraethyl 3-(2-(5-fluoro-2-methyl-1-(4-(methylsulfinyl)benzylidene)-1H-inden-3-yl)acetamido)propane-1,2-diyl diphosphate]
- MTD at 1 week [22]: > 500 mg/kg/day

Structure (SMILES): CCOP(=O)(OCC)OCCCCOC(=O)c1ccccc1OC(C)=O [PA-III 506, phospho-aspirin]
- reduction of average tumor volume compared to controls ([1]; 120 mg/kg/d orally): 62%
- treated mice that had no tumors [1, 30]: 20%
- treated mice that had tumors <100 mm^3 [1, 30]: 30%
- maximum tolerated dose (MTD) [23]: > 1,600 mg/kg
- intact compound in plasma or xenografts [24]: No intact PA-III 506 in either plasma or xenografts was detected

The next lines start with results.

- AUC in lung [25]: 57.5
- Tmax in lung [25]: 8 h
- Tmax in plasma [25]: 8 h
- metabolite generated by PSA 95 [26]: no detectable
Structure (SMILES): CC1=C(CC(=O)O)c2cc(F)ccc2/C1=C\c1ccc(S(C)(=O)=O)cc1 [Sulindac sulfone, sulindac sulfone]

- IC50 ([7]; U87, 24-hour growth inhibition): ≥ 1000 µM
- metabolite generated by PSA 95 [28]: no detectable
Structure (SMILES): CC1=C(CC(=O)O)c2cc(F)ccc2/C1=C\c1ccc([S+](C)[O-])cc1 (stereo not drawn) [Sulindac, sulindac, reference compound]
- inhibition of growth of xenografts [27]: 32%

- IC50 ([7]; U87, 24-hour growth inhibition): ≥ 1000 µM
- accumulation in A431 cells ([9]; limit of detection 2.5 pmol): no significant accumulation
Structure (SMILES): CC(C)Cc1ccc(C(C)C(=O)O)cc1 (stereo not drawn) [ibuprofen, reference compound]

- Tmax ([19]; mouse, plasma, ip, 58 mg/kg): 1 h
Structure (SMILES): COc1ccc2c(c1)c(CC(=O)O)c(C)n2C(=O)c1ccc(Cl)cc1 [indomethacin, reference compound]
- gastric damage, H&E stained gastric tissue sections [29]: caused gastric damage

- accumulation in A431 cells ([9]; limit of detection 2.5 pmol): no significant accumulation
Structure (SMILES): CC(C)Cc1ccc(C(C)C(=O)OCCCCOP(=O)(O)O)cc1 (stereo not drawn) [phospho-ibuprofen phosphate 505]
